Measured values: patent US8173695B2, “Kappa selective opioid receptor antagonist” (Eli Lilly and Company, priority 2008, dated 2012)
“And” between values parts separate entries of the source, which are not always exact repeats. Equal entries are not always repeated. Where two headings read alike, the source gives them in different places.

Key:
[1] = target: T1, kappa receptors (striatum) (Rattus norvegicus, UniProt P34975); assay: Opioid receptor occupancy (RO) in rat brain, tracer GR103545; format: in vivo; details: 5.5 hrs following oral administration
T1 construct: dose-dependent level of kappa receptor occupancy in the striatum; from tissue; host or cells: striatum of living Sprague Dawley rats
T1 sequence (P34975 whole entry): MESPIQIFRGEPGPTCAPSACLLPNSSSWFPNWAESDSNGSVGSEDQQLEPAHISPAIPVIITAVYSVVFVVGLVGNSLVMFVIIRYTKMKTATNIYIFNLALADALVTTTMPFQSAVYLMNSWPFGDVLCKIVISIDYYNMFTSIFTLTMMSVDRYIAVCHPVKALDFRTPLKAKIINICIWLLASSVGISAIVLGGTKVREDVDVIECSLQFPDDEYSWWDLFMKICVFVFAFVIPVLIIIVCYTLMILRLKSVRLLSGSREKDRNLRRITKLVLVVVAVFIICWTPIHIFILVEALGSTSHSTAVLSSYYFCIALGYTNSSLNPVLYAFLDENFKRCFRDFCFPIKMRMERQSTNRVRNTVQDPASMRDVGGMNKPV

mu receptors (striatum) = target: T2, mu receptors (striatum) (Rattus norvegicus, UniProt P33535); assay: Opioid receptor occupancy (RO) in rat brain, tracer naltrexone; format: in vivo
T2 construct: from tissue; host or cells: striatum of living Sprague Dawley rats
T2 sequence (P33535 whole entry): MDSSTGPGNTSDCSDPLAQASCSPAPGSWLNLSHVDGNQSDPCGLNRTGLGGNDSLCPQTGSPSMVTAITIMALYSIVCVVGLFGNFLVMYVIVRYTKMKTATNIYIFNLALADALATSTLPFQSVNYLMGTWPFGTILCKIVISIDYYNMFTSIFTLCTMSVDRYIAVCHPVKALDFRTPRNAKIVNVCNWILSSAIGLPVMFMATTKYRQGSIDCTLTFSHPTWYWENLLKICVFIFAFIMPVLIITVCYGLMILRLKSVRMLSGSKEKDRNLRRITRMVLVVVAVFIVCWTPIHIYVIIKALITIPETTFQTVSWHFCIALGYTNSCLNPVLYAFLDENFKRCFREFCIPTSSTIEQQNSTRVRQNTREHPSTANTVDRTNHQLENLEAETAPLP

[2] = Plasma exposure after oral dosing, LC/MS/MS; format: in vivo; details: male, Sprague Dawley (Harlan), rat plasma, read-out: Plasma Levels
Experimental: Male Harlan Sprague Dawley rats are treated with the compound of Example 1A of the present invention using a 3% lactic acid/water oral formulation at doses of […], 0.3, 1, 3, 10 and 30 mg/kg. […] The increasing levels of kappa receptor occupancy are driven by roughly proportional increases in plasma and brain exposure of the compound of Example 1A of the present invention up to a dose of 30 mg/kg.
Plasma exposure of Example 1A of the present invention in the rat following administration is determined from plasma isolated from trunk blood collected at the time of tissue collection for receptor occupancy. Levels of the compound of Example 1A are detected by LC/MS/MS (API 4000, MDS Sciex) and quantified from a standard curve of Example 1A prepared in vehicle treated rat plasma.

[3] = tested on: alcohol preferring (P) rats; assay: P rat 12 hr ethanol drinking; format: in vivo; details: p<0.05 versus vehicle
Experimental: The test animals are selectively-bred alcohol preferring (P) rats. These rats voluntarily consume more than 5 g/kg of ethanol per day and meet all of the perceived criteria for an animal model of alcoholism. They attain blood alcohol contents between 50-200 mg %; they will operant respond to obtain ethanol; they consume ethanol for pharmacological effects and not taste, smell or caloric properties; and they develop metabolic and physiological tolerance and eventually dependence with chronic ethanol access.
Female P rats are obtained from a breeding facility at the Indiana University Medical Center in Indianapolis, Ind., USA. Rats are individually housed in an environmentally controlled facility and maintained on a 12 hr light/dark cycle (lights off at 1500 hours).
All drugs are mixed fresh prior to use and administered in a volume of 1 mL/kg. […]
Following a 4-day acclimation to the colony, rats receive homecage access to a bottle of EtOH (10% v/v; Ancare, Bellmore, N.Y.) in addition to the standard bottle of water. […] Consumption of EtOH and water are monitored for approximately 6-9 months prior to drug testing. Food and fluid intake are measured via force transduction with a PC-controlled Drinking & Feeding Monitoring System (TSE Systems, Bad Homburg, Germany). Consumption of food, water, and 15% (v/v) EtOH are continuously monitored for 12 hrs following drug or vehicle administration. […]

P rats = assay: P rat progressive ratio responding for ethanol; format: in vivo; details: 10 mg/kg p.o. 60 min prior to testing, p<0.05 versus vehicle
Experimental: This test assesses the motivation to work for access to ethanol in P rats following ethanol abstinence. This animal model simulates ethanol craving.
Female P rats (Indiana University Medical Center, Indianapolis, Ind., USA) are pair-housed in an environmentally controlled facility and maintained on a 12 h light/dark cycle (lights on at 0600 hours).
Compounds are solubilized in sterile water by the dropwise addition of 85% lactic acid, mixed freshly prior to use, and administered in a volume of 1 mL/kg. Unless otherwise stated, compounds are administered p.o. 60 min prior to the experimental session. Doses are assigned using a counterbalanced, within-subject design (n=8-11 per experiment).
In order to reduce novelty-induced avoidance of ethanol (EtOH), the water bottle on the homecage is replaced with a bottle containing 15% EtOH (v/v; Ancare, Bellmore, N.Y.) for two days prior to operant training. Throughout the rest of the experiment, rats are allowed ad libitum access to water and standard laboratory chow in the homecage.
Daily 60-min sessions are conducted in standard rat operant chambers, housed within sound-attenuating chambers (MED Associates, Inc., St. Albans, Vt., USA). The 0.5 cm diameter stainless steel bars of the floor grid of the operant chambers are positioned approximately 1.5 cm apart. Two retractable operant levers in each operant chamber are located approximately 15 cm above the grid floor and 13 cm apart. A recessed trough is located in the space between the levers, through which a dipper cup (0.1 mL capacity) is raised to deliver response-contingent ethanol (15% EtOH, v/v). Upon a reinforced response, a stimulus light is illuminated during the 4-sec dipper cup access. Operation of the stimuli and behavioral responses are controlled and recorded by personal computer for offline analysis. At the end of each session, all stimuli are turned off and levers are retracted.
Rats are trained to press a lever for EtOH reinforcement. Initially, responses on either lever are considered correct responses and are rewarded with reinforcement. […]

Sprague Dawley rats [4] = assay: Prepulse inhibition, reversal of U69593 induced disruption of PPI; format: in vivo, rat
Sprague Dawley rats [5] = assay: Prepulse inhibition, reversal of morphine induced disruption of PPI; format: in vivo, rat

ED50 [1]: 0.45 mg/kg | ED50 (mu receptors (striatum); oral): > 30 mg/kg | mu receptor occupancy (mu receptors (striatum); oral doses up to 30 mg/kg): no significant occupancy | concentration at 5.5 h ([2]; 0.1 mg/kg, oral dose .1): 1.17 ng/g | concentration at 5.5 h ([2]; 0.3 mg/kg, oral dose .3): 2.27 ng/g | concentration at 5.5 h ([2]; 1 mg/kg, oral dose 1): 4.63 ng/g | concentration at 5.5 h ([2]; 3 mg/kg, oral dose 3): 15.4 ng/g | concentration at 5.5 h ([2]; 10 mg/kg, oral dose 10): 65.2 ng/g | concentration at 5.5 h ([2]; 30 mg/kg, oral dose 30): 106 ng/g
Compound: Cc1cc(C)cc([C@@H]2CCCN2Cc2ccc(Oc3ccc(C(N)=O)cc3F)cc2)c1 (single isomer, unassigned) [Example 1A]
amount of ethanol consumed ([3]; 1 mg/kg orally): decreased | amount of ethanol consumed ([3]; 3 mg/kg orally): decreased | breakpoint (P rats): reduced | number of active lever responses (P rats): reduced | quantity of ethanol consumed (P rats): reduced | % Inhibition (PPI), individual rats (Sprague Dawley rats [4]; 0.1 mg/kg Example 1A p.o./3.0 mg/kg U-69593 sc): 29.86% and 55.18% and 22.97% and 54.62% and 31.90% and 9.79% and 25.88% and 31.40% | % Inhibition (PPI), individual rats (Sprague Dawley rats [4]; 0.3 mg/kg Example 1A p.o./3.0 mg/kg U-69593 sc): 33.74% and −1.75% and 52.00% and 47.01% and 0.52% and 42.14% and 66.71% and 71.91% | % Inhibition (PPI), individual rats (Sprague Dawley rats [4]; 1.0 mg/kg Example 1A p.o./3.0 mg/kg U-69593 sc): 30.08% and 52.23% and 24.91% and 70.96% and 55.10% and 71.68% and 61.05% and 59.31% | reversal of sensory motor gating deficits induced by the Kappa agonist U-69593 (Sprague Dawley rats [4]; rats, Table 6): can reverse | % Inhibition (PPI), individual rats (Sprague Dawley rats [5]; 10 mg/kg Example 1A p.o./20 mg/kg morphine sc): 42.77% and 21.98% and 40.70% and 0.18% and 21.00% and 21.21% and 50.34% and 26.48% and 18.04% and 21.07% and 29.49% and 50.16% and 18.66% and 63.46% | % Inhibition (PPI), individual rats (Sprague Dawley rats [5]; 30 mg/kg Example 1A p.o./20 mg/kg morphine sc): 30.93% and 6.85% and 16.56% and 54.32% and 18.94% and 45.40% and 42.78% and 46.29% and 39.26% and 20.35% and 40.02% and 8.61% and 57.12% and 41.32% | reversal of sensory motor gating deficits induced by the Mu agonist morphine (Sprague Dawley rats [5]; rats, Table 7): can reverse
